Converted amounts (≈) assume the structure as drawn. “Also recorded” adds a separate entry of the source.
Columns and labels:
[1] = Storage stability study of SDD tablets; assay type: physicochemical; details: tablet form, a year at 40° C./75% relative humidity (RH)
Excerpt: Granules were obtained through dry granulation, milling and mixing process. A dry granulation was obtained by sieving together a mixture of microcrystalline cellulose, lactose monohydrate, croscarmellose sodium, Poloxamer 407, colloidal silicon dioxide and the SDD, then adding magnesium stearate and mixing to obtain a first admixture. The density of the first admixture was increased by dry granulation to provide a first portion of granules. A second portion of magnesium stearate was sieved with a 30-mesh sieve, then combined with the first portion of granules and mixed in a V-blender for 2 minutes to obtain a second admixture. The second portion of granules were then obtained using a roller compactor and milled. The milled granules were added to the V-blender and mixed with the extragranular excipient's microcrystalline cellulose, lactose monohydrate and croscarmellose sodium. The extragranular excipients were sieved through a 30-mesh sieve, then added to the V-blender and mixed with the granules for 2 minutes to provide a third admixture. The third admixture was compressed into different tablet strengths using die that provided conforming tablet sizes.
Active formulation tablets having the composition as described in Table 10 were tested for stability under different storage conditions.

[2] = Polymorph stability studies; assay type: physicochemical; details: crystalline polymorphs
Excerpt: (§1) The terms “Form A” and “Form B” refer to forms of Compound A that are purified anhydrous crystalline polymorph forms.

[3] = Biopharmaceutics Classification System (BCS) class; details: stable crystalline form
Excerpt: The Biopharmaceutics Classification System (BCS) is a system developed by the U.S. Food and Drug Administration (FDA) to differentiate forms of active pharmaceutical ingredients (API) based on their solubility and intestinal permeability, as follows: Class I: high solubility, high permeability; Class II: low solubility, high permeability; Class III: high solubility, low permeability, and Class IV: low solubility, low permeability. Formulating compositions of a BCS II-type API to enhance solubility and thus improve bioavailability can be a challenge.
as §1

[4] = Dynamic Vapor Sorption (DVS); assay type: physicochemical; details: at 95% RH
[5] = Solubility in aqueous phosphate buffer and FaSSIF, pH 6.5; assay type: physicochemical
[6] = pKa of aromatic amino group; assay type: physicochemical; details: weakly basic aromatic amino group

## Cc1nc2ccc(F)cc2n1-c1nc(N)c(F)c(Nc2ccc(C(F)(F)F)cc2)n1 [Compound A, 5-fluoro-2-(6-fluoro-2-methyl-1H-benzimidazol-1-yl)-N-[4-(trifluoromethyl)phenyl]pyrimidine-4,6-diamine]
[1]
  chemical and physical stability (XRPD and mDSC): both chemically and physically stable in tablet form and remained in an amorphous state

## Cc1nc2ccc(F)cc2n1-c1nc(N)c(F)c(Nc2ccc(C(F)(F)F)cc2)n1 [Form A, 5-fluoro-2-(6-fluoro-2-methyl-1H-benzimidazol-1-yl)-N-[4-(trifluoromethyl)phenyl]pyrimidine-4,6-diamine]
[2]
  polymorph stability: more stable than Form B; also recorded: most stable anhydrous crystalline form
[3]
  BCS class: BCS II substance

## Cc1nc2ccc(F)cc2n1-c1nc(N)c(F)c(Nc2ccc(C(F)(F)F)cc2)n1 [Form B, 5-fluoro-2-(6-fluoro-2-methyl-1H-benzimidazol-1-yl)-N-[4-(trifluoromethyl)phenyl]pyrimidine-4,6-diamine]
[2]
  polymorph stability: converts to Form A

## Cc1nc2ccc(F)cc2n1-c1nc(N)c(F)c(Nc2ccc(C(F)(F)F)cc2)n1 [Form I, 5-fluoro-2-(6-fluoro-2-methyl-1H-benzimidazol-1-yl)-N-[4-(trifluoromethyl)phenyl]pyrimidine-4,6-diamine]
[4]
  water absorption: approximately 1.3%
[5]; Fasted State Intestinal Fluid (FaSSIF) at pH 6.5
  solubility: ~18 µg/mL (≈ 42.8 µM)
[5]; aqueous phosphate buffer at pH 6.5
  solubility: < 1 µg/mL
[6]
  pKa: < 3
